According to patent publication US7947741B2, “Use and administration of bacterial efflux pump inhibitors” (Mpex Pharmaceuticals, Inc., priority 2004, dated 2011):
In brackets after ≈: the same amount, converted by molar mass. Like-named read-outs stand apart in the source and are kept apart here.

Tests used:
[1] = test system: P. aeruginosa PAM1723 (nalB, overexpressing MexAB-OprM); assay: microbe, parasite or virus in culture; format: cell-based, Pseudomonas aeruginosa; conditions: for Levofloxacin MIC in the presence of inhibitor: PAM1723; for MIC: Pseudomonas aeruginosa, read-out: MIC* (MIC for the efflux pump inhibitor), PAM1723, inhibitor alone
Protocol: (§1) Stock solutions were further diluted, according to the needs of a particular assay, in Mueller Hinton Broth (MHB). Stock solution was stored at −80° C.
(§2) The checkerboard assay was performed in microtiter plates. […] The result of these manipulations is that each well of the microtiter plate contains a unique combination of concentrations of the two agents. The assay was performed in MHB with a final bacterial inoculum of 5×10^5 CFU/ml (from an early-log phase culture). Microtiter plates were incubated during 20 h at 35° C. and were read using a microtiterplate reader (Molecular Devices) at 650 nm as well as visual observation using a microtiter plate reading mirror.
(§3) The test organisms used was PAM1020, which is a wild type strain of P. aeruginosa expressing the basal level of MexAB-OprM, as well as PAM1723, PAM1738, and PAM1753, overexpressing the MexAB-OprM, MexCD-OprJ, and MexEF-OprN pump, respectively.
Efflux pump inhibitory activity of several commercially available diamidine analogs was evaluated using the checkerboard assay of Example 1 against the strain of P. aeruginosa overexpressing the MexAB-OprM efflux pump.

[2] = target: MexAB-OprM-mediated efflux of Leu-Nap, PAM1723 cells (Pseudomonas aeruginosa, UniProt P52002); assay: Leu-Nap accumulation assay; format: cell-based; conditions: Leu-Nap 100 μg/ml
[3] = test system: P. aeruginosa PAM1738 (nfxB, overexpressing MexCD-OprJ); assay: microbe, parasite or virus in culture; format: cell-based, Pseudomonas aeruginosa; conditions: for Levofloxacin MIC in the presence of inhibitor: PAM1738; for MIC: Pseudomonas aeruginosa, read-out: MIC* (MIC for the efflux pump inhibitor)
Protocol: as §1, §2, §3

[4] = test system: P. aeruginosa PAM1753 (nfxC, overexpressing MexEF-OprN); assay: Levofloxacin potentiation checkerboard assay (broth microdilution); format: cell-based, Pseudomonas aeruginosa; conditions: for Levofloxacin MIC in the presence of inhibitor: PAM1753; for MIC: Pseudomonas aeruginosa, read-out: MIC* (MIC for the efflux pump inhibitor)
Protocol: as §1, §2, §3

[5] = test system: P. aeruginosa PAM1020 (wt, basal level of MexAB-OprM); assay: as above; format: cell-based, Pseudomonas aeruginosa; conditions: PAM1020; for MIC: Pseudomonas aeruginosa, inhibitor alone, read-out: MIC* (MIC for the efflux pump inhibitor)
Protocol: as §1, §2, §3

[6] = test system: P. aeruginosa PAM1626 (lacks all the three efflux pumps); assay: microbe, parasite or virus in culture; format: cell-based, Pseudomonas aeruginosa; conditions: for Levofloxacin MIC in the presence of inhibitor: PAM1626; for MIC: Pseudomonas aeruginosa, read-out: MIC* (MIC for the efflux pump inhibitor)
[7] = test system: P. aeruginosa PAM1154 (MexAB-OprM deleted); format: cell-based, Pseudomonas aeruginosa
[8] = test system: P. aeruginosa PAM1723 (MexAB-OprM overexpressed); format: cell-based, Pseudomonas aeruginosa; conditions: for MIC, No Pentamidine / MIC, Pentamidine (40 μg/ml): PAM1723 (MexAB-OprM overexpressed); for MIC, Pentamidine (40 μg/ml): in the presence of pentamidine 40 μg/ml
[9] = intravenous infusion; cited from earlier work

Chain of MexAB-OprM-mediated efflux of Leu-Nap, PAM1723 cells (Q51487 18-485): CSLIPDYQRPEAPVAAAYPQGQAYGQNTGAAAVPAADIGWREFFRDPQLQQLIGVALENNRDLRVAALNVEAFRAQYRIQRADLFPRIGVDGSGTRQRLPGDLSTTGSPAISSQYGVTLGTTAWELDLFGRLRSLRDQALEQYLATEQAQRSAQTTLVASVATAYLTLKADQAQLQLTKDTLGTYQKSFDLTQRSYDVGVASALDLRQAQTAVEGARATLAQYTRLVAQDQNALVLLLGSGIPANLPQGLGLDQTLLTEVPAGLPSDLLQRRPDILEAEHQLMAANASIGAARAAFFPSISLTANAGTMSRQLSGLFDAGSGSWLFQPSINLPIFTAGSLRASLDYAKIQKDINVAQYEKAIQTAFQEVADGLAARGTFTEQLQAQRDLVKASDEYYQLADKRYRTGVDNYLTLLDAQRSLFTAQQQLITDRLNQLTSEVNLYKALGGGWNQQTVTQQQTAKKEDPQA
Chain of MexAB-OprM-mediated efflux of Leu-Nap, PAM1723 cells (P52002 whole entry): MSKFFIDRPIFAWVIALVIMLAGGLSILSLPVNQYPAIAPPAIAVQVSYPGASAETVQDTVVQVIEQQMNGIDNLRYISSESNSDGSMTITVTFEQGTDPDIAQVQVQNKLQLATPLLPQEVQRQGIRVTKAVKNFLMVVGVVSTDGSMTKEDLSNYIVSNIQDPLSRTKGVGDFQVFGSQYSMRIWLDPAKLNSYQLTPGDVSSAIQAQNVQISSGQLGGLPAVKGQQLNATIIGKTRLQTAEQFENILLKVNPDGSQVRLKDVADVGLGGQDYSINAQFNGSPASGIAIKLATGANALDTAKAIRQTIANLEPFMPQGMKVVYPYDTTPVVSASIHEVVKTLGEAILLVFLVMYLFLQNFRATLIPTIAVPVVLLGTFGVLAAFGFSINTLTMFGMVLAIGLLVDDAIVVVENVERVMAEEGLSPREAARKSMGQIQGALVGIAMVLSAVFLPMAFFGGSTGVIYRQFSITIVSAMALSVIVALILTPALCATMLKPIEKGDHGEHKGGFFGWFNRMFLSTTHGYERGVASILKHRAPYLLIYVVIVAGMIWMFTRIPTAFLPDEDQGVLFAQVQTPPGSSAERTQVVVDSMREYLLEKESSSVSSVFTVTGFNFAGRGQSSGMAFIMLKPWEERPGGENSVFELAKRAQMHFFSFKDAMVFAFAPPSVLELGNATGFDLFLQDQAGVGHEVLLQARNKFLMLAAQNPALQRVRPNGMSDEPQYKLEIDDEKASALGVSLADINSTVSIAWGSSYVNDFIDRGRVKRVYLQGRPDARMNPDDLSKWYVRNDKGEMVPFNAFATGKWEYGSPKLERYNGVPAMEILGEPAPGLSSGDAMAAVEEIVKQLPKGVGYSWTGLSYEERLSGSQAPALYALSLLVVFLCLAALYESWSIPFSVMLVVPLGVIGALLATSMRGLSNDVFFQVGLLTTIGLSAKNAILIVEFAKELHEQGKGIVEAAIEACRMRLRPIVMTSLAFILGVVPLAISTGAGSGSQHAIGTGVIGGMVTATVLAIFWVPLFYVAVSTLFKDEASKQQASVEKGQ
Chain of MexAB-OprM-mediated efflux of Leu-Nap, PAM1723 cells (P52477 24-383, further chain): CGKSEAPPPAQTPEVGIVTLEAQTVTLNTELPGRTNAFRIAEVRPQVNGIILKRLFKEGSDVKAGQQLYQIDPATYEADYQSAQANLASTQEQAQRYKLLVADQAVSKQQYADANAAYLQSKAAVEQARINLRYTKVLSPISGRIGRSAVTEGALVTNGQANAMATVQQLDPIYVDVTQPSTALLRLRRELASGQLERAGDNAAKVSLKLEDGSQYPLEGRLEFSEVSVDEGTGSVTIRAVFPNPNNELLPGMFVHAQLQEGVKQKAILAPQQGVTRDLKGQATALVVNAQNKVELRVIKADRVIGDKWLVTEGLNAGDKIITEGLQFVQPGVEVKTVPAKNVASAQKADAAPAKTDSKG

Structure (SMILES)	Levofloxacin MIC in the presence of inhibitor ([1]; inhibitor 1.25 μg/ml) [µg/mL]	Levofloxacin MIC in the presence of inhibitor ([1]; inhibitor 2.5 μg/ml) [µg/mL]	Levofloxacin MIC in the presence of inhibitor ([1]; inhibitor 5 μg/ml) [µg/mL]	Levofloxacin MIC in the presence of inhibitor ([1]; inhibitor 10 μg/ml) [µg/mL]	Levofloxacin MIC in the presence of inhibitor ([1]; inhibitor 20 μg/ml) [µg/mL]	Levofloxacin MIC in the presence of inhibitor ([1]; inhibitor 40 μg/ml) [µg/mL]	MIC [1] [µg/mL]	inhibitor concentration at which rate of Leu-Nap uptake in PAM1723 and PAM1626 is the same (complete inhibition of efflux) [2] [µg/mL]	Levofloxacin MIC in the presence of inhibitor ([3]; inhibitor 1.25 μg/ml) [µg/mL]	Levofloxacin MIC in the presence of inhibitor ([3]; inhibitor 2.5 μg/ml) [µg/mL]	Levofloxacin MIC in the presence of inhibitor ([3]; inhibitor 5 μg/ml) [µg/mL]	Levofloxacin MIC in the presence of inhibitor ([3]; inhibitor 10 μg/ml) [µg/mL]	Levofloxacin MIC in the presence of inhibitor ([3]; inhibitor 20 μg/ml) [µg/mL]	MIC [3] [µg/mL]	Levofloxacin MIC in the presence of inhibitor ([4]; inhibitor 1.25 μg/ml) [µg/mL]	Levofloxacin MIC in the presence of inhibitor ([4]; inhibitor 2.5 μg/ml) [µg/mL]	MIC [4] [µg/mL]	Levofloxacin MIC in the presence of inhibitor ([5]; inhibitor 1.25 μg/ml) [µg/mL]	MIC, No Pentamidine [7] [µg/mL]	MIC, Pentamidine (40 μg/ml) [8]	further results
Cl.Cl.N=C(N)c1cccc(NC(=O)Nc2cccc(C(=N)N)c2)c1 [MP 601319]	2	2	2	2	1	0.25	> 80	–	–	–	–	–	–	–	–	–	–	–	–	–	Levofloxacin MIC in the presence of inhibitor ([1]; inhibitor 80 μg/ml): 0.125 µg/mL
N=C(N)c1ccc(/N=N/Nc2ccc(C(=N)N)cc2)cc1 [MP 601206]	2	2	1	1	0.5	0.06	80	–	–	–	–	–	–	–	–	–	–	–	–	–	–
N=C(N)c1ccc(OCCCCCCOc2ccc(C(=N)N)cc2)cc1 [Hexamidine, hexamidine]	2	1	1	0.125	0.015	–	40	20	0.5	0.5	0.25	0.06	0.015	80	2	2	20	0.125	–	–	Levofloxacin MIC in the presence of inhibitor ([3]; inhibitor 40 μg/ml): 0.007 µg/mL; Levofloxacin MIC in the presence of inhibitor ([4]; inhibitor 5 μg/ml): 1 µg/mL; Levofloxacin MIC in the presence of inhibitor ([4]; inhibitor 10 μg/ml): 0.25 µg/mL; Levofloxacin MIC in the presence of inhibitor ([5]; inhibitor 2.5 μg/ml): 0.125 µg/mL; Levofloxacin MIC in the presence of inhibitor ([5]; inhibitor 5 μg/ml): 0.03 µg/mL; Levofloxacin MIC in the presence of inhibitor ([5]; inhibitor 10 μg/ml): 0.007 µg/mL; MIC [5]: 20 µg/mL; Levofloxacin MIC in the presence of inhibitor ([6]; inhibitor 1.25 μg/ml): 0.007 µg/mL; MIC [6]: 2.5 µg/mL (≈ 7.05 µM)
NC[C@H]1O[C@H](O[C@H]2[C@H](O)[C@@H](O[C@H]3O[C@H](CO)[C@@H](O)[C@H](N)[C@H]3O)[C@H](N)C[C@@H]2N)[C@H](N)C[C@@H]1O [Tb, tobramycin]	–	–	–	–	–	–	–	–	–	–	–	–	–	–	–	–	–	–	0.03 (≈ 0.0642 µM)	0.03	decrease of the MIC by pentamidine [8]: almost no effect; MIC, No Pentamidine [8]: 0.06 µg/mL (≈ 0.128 µM)
O=C(N[C@H](CO)[C@H](O)c1ccc([N+](=O)[O-])cc1)C(Cl)Cl [Cm, chloramphenicol]	–	–	–	–	–	–	–	–	–	–	–	–	–	–	–	–	–	–	1 (≈ 3.09 µM)	8	MIC, No Pentamidine [8]: 128 µg/mL (≈ 396 µM); decrease of the MIC by pentamidine ([8]; PAM1723, pentamidine 40 μg/ml): 16 fold
N=C(N)c1ccc(OCCCCCOc2ccc(C(=N)N)cc2)cc1 [pentamidine isethionate, 4,4′-diamidino-diphenoxypentane di(β-hydroxyethanesulfonate)]	–	–	–	–	–	–	–	–	–	–	–	–	–	–	–	–	–	–	–	–	plasma levels during the first two hours following an intravenous infusion [9]: one-twentieth of peak levels
N=C(N)c1ccc(OCCCOc2ccc(C(=N)N)cc2)cc1 [Propamidine, propamidine]	2	2	1	0.5	0.25	–	40	160	0.5	0.5	0.25	0.125	0.015	40	4	2	5	0.25	–	–	Levofloxacin MIC in the presence of inhibitor ([5]; inhibitor 2.5 μg/ml): 0.125 µg/mL; Levofloxacin MIC in the presence of inhibitor ([5]; inhibitor 5 μg/ml): 0.125 µg/mL; Levofloxacin MIC in the presence of inhibitor ([5]; inhibitor 10 μg/ml): 0.06 µg/mL; Levofloxacin MIC in the presence of inhibitor ([5]; inhibitor 20 μg/ml): 0.03 µg/mL; MIC [5]: 40 µg/mL; Levofloxacin MIC in the presence of inhibitor ([6]; inhibitor 1.25 μg/ml): 0.015 µg/mL; Levofloxacin MIC in the presence of inhibitor ([6]; inhibitor 2.5 μg/ml): 0.007 µg/mL; Levofloxacin MIC in the presence of inhibitor ([6]; inhibitor 5 μg/ml): 0.007 µg/mL; MIC [6]: 10 µg/mL (≈ 32 µM)
CC[C@H]1OC(=O)[C@H](C)[C@@H](O[C@H]2C[C@@](C)(OC)[C@@H](O)[C@H](C)O2)[C@H](C)[C@@H](O[C@@H]2O[C@H](C)C[C@H](N(C)C)[C@H]2O)[C@](C)(O)C[C@@H](C)C(=O)[C@H](C)[C@@H](O)[C@]1(C)O [Erm, erythromycin]	–	–	–	–	–	–	–	–	–	–	–	–	–	–	–	–	–	–	8 (≈ 10.9 µM)	64	decrease of the MIC by pentamidine ([8]; PAM1723, pentamidine 40 μg/ml): 4 fold
CC[C@H]1OC(=O)[C@H](C)[C@@H](O[C@H]2C[C@@](C)(OC)[C@@H](O)[C@H](C)O2)[C@H](C)[C@@H](O[C@@H]2O[C@H](C)C[C@H](N(C)C)[C@H]2O)[C@](C)(O)C[C@@H](C)CN(C)[C@H](C)[C@@H](O)[C@]1(C)O [Azithro, azithromycin]	–	–	–	–	–	–	–	–	–	–	–	–	–	–	–	–	–	–	0.5 (≈ 0.668 µM)	1	MIC, No Pentamidine [8]: 64 µg/mL (≈ 85.4 µM); decrease of the MIC by pentamidine ([8]; PAM1723, pentamidine 40 μg/ml): 64 fold
N=C(N)c1ccc(OCCCOc2ccc(C(=N)N)cc2Br)c(Br)c1 [Dibromopropamidine, dibromopropamidine]	2	1	0.5	0.125	0.06	0.06	80	20	0.5	0.25	0.125	0.06	0.03	80	2	1	20	0.25	–	–	Levofloxacin MIC in the presence of inhibitor ([3]; inhibitor 40 μg/ml): 0.03 µg/mL; Levofloxacin MIC in the presence of inhibitor ([4]; inhibitor 5 μg/ml): 0.5 µg/mL; Levofloxacin MIC in the presence of inhibitor ([4]; inhibitor 10 μg/ml): 0.125 µg/mL; Levofloxacin MIC in the presence of inhibitor ([5]; inhibitor 2.5 μg/ml): 0.25 µg/mL; Levofloxacin MIC in the presence of inhibitor ([5]; inhibitor 5 μg/ml): 0.125 µg/mL; Levofloxacin MIC in the presence of inhibitor ([5]; inhibitor 10 μg/ml): 0.06 µg/mL; Levofloxacin MIC in the presence of inhibitor ([5]; inhibitor 20 μg/ml): 0.03 µg/mL; Levofloxacin MIC in the presence of inhibitor ([5]; inhibitor 40 μg/ml): 0.03 µg/mL; MIC [5]: 80 µg/mL; Levofloxacin MIC in the presence of inhibitor ([6]; inhibitor 1.25 μg/ml): 0.0075 µg/mL; Levofloxacin MIC in the presence of inhibitor ([6]; inhibitor 2.5 μg/ml): 0.007 µg/mL; MIC [6]: 5 µg/mL (≈ 10.6 µM)
